Results: patent US9850245B2 (Merck Sharp & Dohme Corp., priority 2014, dated 2017)

Legend:
ROMK = ROMK (Homo sapiens (Human), UniProt P48048); experiment: Thallium Flux Assay; format: cell-based
Protocol: A Thallium Flux Assay was performed on the compounds of the Examples. This assay has been described previously; see, e.g., PCT Published Application WO 2013/062900.

Kir1.1 (ROMK1) = Kir1.1 (ROMK1) (Homo sapiens (Human), UniProt P48048); experiment: Electrophysiology Assay (whole cell voltage clamp, IonWorks Quattro); format: cell-based; details: Chinese hamster ovary cells stably expressing Kir1.1; fractional block at voltage step to 0 mV; 6 min compound incubation
Sequence of Kir1.1 (ROMK1) (P48048 whole entry): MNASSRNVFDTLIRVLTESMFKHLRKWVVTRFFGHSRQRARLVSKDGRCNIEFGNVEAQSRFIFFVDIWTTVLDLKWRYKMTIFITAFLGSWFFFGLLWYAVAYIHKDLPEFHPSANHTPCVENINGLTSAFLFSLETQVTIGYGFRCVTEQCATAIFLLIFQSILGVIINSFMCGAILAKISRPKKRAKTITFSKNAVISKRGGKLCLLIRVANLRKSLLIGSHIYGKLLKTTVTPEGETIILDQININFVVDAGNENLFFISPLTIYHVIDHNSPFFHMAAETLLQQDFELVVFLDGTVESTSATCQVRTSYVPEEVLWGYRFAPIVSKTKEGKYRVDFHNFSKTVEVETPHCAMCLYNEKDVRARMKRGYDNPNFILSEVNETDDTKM
Protocol: Blocking of Kir1.1 (ROMK1) currents was examined by whole cell voltage clamp (Hamill et. al. Pfluegers Archives 391:85-100 (1981)) using the IonWorks Quattro automated electrophysiology platform (Molecular Devices, Sunnyvale, Calif.). Chinese hamster ovary cells stably expressing Kir1.1 channels were maintained in T-75 flasks in cell culture media in a humidified 10% CO2 incubator at 37° C. Prior to an experiment, Kir1.1 expression was induced by overnight incubation with 1 mM sodium butyrate. On the day of the experiment, cells were dissociated with 2.5 mL of Versene (Invitrogen 15040-066), a non-enzymatic cell dissociation reagent, for approximately 6 min at 37° C. and suspended in 10 mL of bath solution containing (in mM): 150 NaCl, 10 KCl, 2.7 CaCl2, 0.5 MgCl2, and 5 HEPES, at pH 7.4. After centrifugation, the cell pellet was resuspended in approximately 4.0 mL of bath solution and placed in the IonWorks instrument. The intracellular solution consisted of (in mM): 80 K gluconate, 40 KCl, 20 KF, 3.2 MgCl2, 3 EGTA, and 5 Hepes, at pH 7.4. Electrical access to the cytoplasm was achieved by perforation in 0.13 mg/mL amphotericin B for 4 min. Amphotericin B (Sigma A-4888) was prepared as a 40 mg/mL solution in DMSO.
Voltage protocols and current recordings were performed using the IonWorks HT software/hardware system. Currents were sampled at 1 kHz. There was no correction for liquid junction potentials. The test pulse, consisting of a 100 ms (millisecond) step to 0 mV (millivolts) from a holding potential of −70 mV, followed by a 100 ms voltage ramp from −70 mV to +70 mV, was applied before and after a 6 min compound incubation period. Test compounds were prepared by diluting DMSO stock solutions into the bath solution at 3× the final concentration and placed in the instrument in 96-well polypropylene plates. Current amplitudes were measured using the IonWorks software. To assess compound potency, the fractional block during the voltage step to 0 mV was calculated in Microsoft Excel (Microsoft, Redmond, Calif.), and dose-response curves were fitted with Igor Pro 4.0 (WaveMetrics, Lake Oswego, Oreg.).

Sequence of ROMK (P48048 whole entry): as above

SMILES | IC50 (ROMK) [nM] | IC50 (Kir1.1 (ROMK1)) [nM]
Cc1nc(-n2cnnn2)ccc1C(O)CN1CCC2(CC1)CN(C1=CC(=O)OC1)CCO2 (single isomer, unassigned) [Example 20B, 4-(9-(2-hydroxy-2-(2-methyl-6-(1H-tetrazol-1-yl)pyridin-3-yl)ethyl)-1-oxa-4,9-diazaspiro[5.5]undecan-4-yl)furan-2(5H)-one] | 225 | 71
CC1=C(N2CCOC3(CCN(CC(O)c4ccc(-n5cnnn5)nc4C)CC3)C2=O)COC1=O (stereo not drawn) [Example 39, 9-(2-hydroxy-2-(2-methyl-6-(1H-tetrazol-1-yl)pyridin-3-yl)ethyl)-4-(4-methyl-5-oxo-2,5-dihydrofuran-3-yl)-1-oxa-4,9-diazaspiro[5.5]undecan-5-one] | 11.2 | 13
Cc1c([C@@H](O)CN2CCC3(CC2)CN(C2=CC(=O)OC2)C(=O)O3)ccc2c1COC2=O [Example 16, (R)-8-(2-hydroxy-2-(4-methyl-1-oxo-1,3-dihydroisobenzofuran-5-yl)ethyl)-3-(5-oxo-2,5-dihydrofuran-3-yl)-1-oxa-3,8-diazaspiro[4.5]decan-2-one] | 315 | 320
CC1=C(N2CCOC3(CCN(C[C@H](O)c4ccc(-n5cnnn5)nc4)CC3)C2=O)COC1=O [Example 6A, (R)-9-(2-(6-(1H-tetrazol-1-yl)pyridin-3-yl)-2-hydroxyethyl)-4-(4-methyl-5-oxo-2,5-dihydrofuran-3-yl)-1-oxa-4,9-diazaspiro[5.5]undecan-5-one] | 14.6 | 6.6
Cc1c([C@@H](O)CN2C3CCC2CC2(C3)OCCN(C3=CC(=O)OC3)C2=O)ccc2c1COC2=O (stereo partly drawn) [Example 36, (1R,2′R,5S)-8-((R)-2-hydroxy-2-(4-methyl-1-oxo-1,3-dihydroisobenzofuran-5-yl)ethyl)-4′-(5-oxo-2,5-dihydrofuran-3-yl)-8-azaspiro[bicyclo[3.2.1]octane-3,2′-morpholin]-3′-one] | 29.3 | 13.4
O=C1C=C(N2CCOC3(CCN(C[C@@H](O)c4ccc(-n5cnnn5)nc4)CC3)C2)CO1 [Example 19B, (S)-4-(9-(2-(6-(1H-tetrazol-1-yl)pyridin-3-yl)-2-hydroxyethyl)-1-oxa-4,9-diazaspiro[5.5]undecan-4-yl)furan-2(5H)-one] | 263 | 100
CC1=C(N2CCOC3(CCN(C[C@H](O)c4ccc5c(c4C)COC5=O)CC3)C2=O)COC1=O [Example 8A, (R)-9-(2-hydroxy-2-(4-methyl-1-oxo-1,3-dihydroisobenzofuran-5-yl)ethyl)-4-(4-methyl-5-oxo-2,5-dihydrofuran-3-yl)-1-oxa-4,9-diazaspiro[5.5]undecan-5-one] | 13.3 | 6.4
CC1=C(N2CCOC3(CCN(CC(O)c4cnc(-n5cnnn5)cn4)CC3)C2=O)COC1=O (single isomer, unassigned) [Example 18A, 9-(2-(5-(1H-tetrazol-1-yl)pyrazin-2-yl)-2-hydroxyethyl)-4-(4-methyl-5-oxo-2,5-dihydrofuran-3-yl)-1-oxa-4,9-diazaspiro[5.5]undecan-5-one] | 69.6 | 12
CC1=C(N2CCOC3(CCN(CC(O)c4ccc(-n5cnnn5)nc4C)CC3)C2)COC1=O (single isomer, unassigned) [Example 22B, 4-(9-(2-hydroxy-2-(2-methyl-6-(1H-tetrazol-1-yl)pyridin-3-yl)ethyl)-1-oxa-4,9-diazaspiro[5.5]undecan-4-yl)-3-methylfuran-2(5H)-one] | 117 | 29
